Results published in patent publication US20150045424A1, “COMPOSITION USEFUL FOR THE TREATMENT OF TYPE 2 DIABETES” (SIGMA-TAU INDUSTRIE FARMACEUTICHE RIUNITE S.P.A., priority 2007, published 2015).

What was measured:
Format in all cases: in vivo, mouse
C57BL/KsJ db/db mice [1] = assay: Plasma HDL-cholesterol levels of db/db mice; details: oral twice daily for 25 days, post-absorption (fasting 9 a.m. to 4.30 p.m.), 7.5 hours after last treatment, n=6
Description: (§1) The C57BL/KsJ db/db mice used in the experiments were supplied by Jackson Lab (via Ch. River). After 10 days of acclimatisation in standard conditions (22±2 [deg.]C.; 55±15% humidity; 15-20 air changes/hour; 12 hour light-darkness cycle with light from 7 a.m. to 7 p.m.) on a standard 4 RF21 diet (Mucedola), blood samples were taken in post-absorption conditions (fasting from 8.30 a.m. to 4.30 p.m.) from the caudal vein with the aid of a Jelco 22G catheter (Johnson and Johnson). Glucose, insulin, triglyceride, cholesterol, free fatty acid and urea levels were checked in the plasma to ensure well-matched distribution of the mice in the treatment groups.
(§2) The mice were divided into groups and treated orally twice daily with:
(§3) Simvastatin 100 mg/kg; L-carnitine inner salt 400 mg/kg; acetyl L-carnitine HCl 592 mg/kg (equimolar amount respect to L-carnitine); propionyl L-carnitine HCl 627 mg/kg (equimolar amount respect to L-carnitine); L-carnitine inner salt 400 mg/kg+Simvastatin 100 mg/kg; acetyl L-carnitine HCl 592 mg/kg+Simvastatin 100 mg/kg; propionyl L-carnitine HCl 627 mg/kg+Simvastatin 100 mg/kg.
(§4) In the course of the experiment, serum glucose levels, glucose tolerance (OGTT), a number of lipid status variables and weight gain were monitored.

C57BL/KsJ db/db mice [2] = assay: Oral glucose tolerance test (OGTT) in db/db mice; details: oral twice daily for 18 days, OGTT glucose 3 g/kg, fasted 18 hours, 5 hours after last treatment, n=6
Description: as §1, §2, §3, §4

C57BL/KsJ db/db mice [3] = assay: Blood glucose levels of db/db mice (feeding, post-absorption, fasting); details: n=6
Text: A much used genetically diabetic mouse model is the C57BL/KsJ db/db mouse.
The genetic basis of this model is a defect in the leptin receptor gene which gives rise to leptin resistance and leads to hyperphagia, obesity, hyperinsulinaemia and insulin resistance, with subsequent symptoms of insufficient insulin secretion and hyperglycaemia (Kodama et al., Diabetologia 37: 739-744, 1994; Chen et al, Cell 84: 491-495, 1996).
as §1
At the start of treatment, the body weight of the animals was checked and monitoring of the animals' consumption of water and feed was scheduled.
as §2, §3, §4

C57BL/KsJ db/db mice [4] = assay: Plasma triglyceride levels of db/db mice; details: oral twice daily for 25 days, post-absorption (fasting 9 a.m. to 4.30 p.m.), 7.5 hours after last treatment, n=6
Description: as §1, §2, §3, §4

C57BL/KsJ db/db mice [5] = assay: Plasma fructosamine levels of db/db mice (indicator of protein glycosylation); details: oral twice daily for 25 days, post-absorption (fasting 9 a.m. to 4.30 p.m.), 7.5 hours after last treatment, n=6
Description: as §1, §2, §3, §4

[6] = oral twice daily for 12 days, blood sample in feeding condition, approximately 15 hours after last treatment
[7] = oral twice daily for 12 days, post-absorption condition (fasting 9 a.m. to 5 p.m.), 8 hours after last treatment
[8] = oral twice daily for 18 days, fasted for 18 hours, 5 hours after last treatment

SMILES | HDL-cholesterol Mean values (C57BL/KsJ db/db mice [1]) [mg/dL] | AUC Glucose (OGTT) Mean values (C57BL/KsJ db/db mice [2]) [u.a.] | Glucose Mean values (C57BL/KsJ db/db mice [3]; [6]) [mg/dL] | Glucose Mean values (C57BL/KsJ db/db mice [3]; [7]) [mg/dL] | Glucose Mean values (C57BL/KsJ db/db mice [3]; [8]) [mg/dL] | Triglycerides Mean values (C57BL/KsJ db/db mice [4]) [mg/dL] | Fructosamine Mean values (C57BL/KsJ db/db mice [5]) [mM]
CC(=O)O[C@H](CC(=O)[O-])C[N+](C)(C)C [Acetyl L-carnitine, acetyl L-carnitine] | 84.5 | 49332.3 | 468.0 | 416.1 | 332.0 | 85.6 | 0.85
C[N+](C)(C)C[C@H](O)CC(=O)[O-] [L-carnitine] | 84.0 | 50187.8 | 470.0 | 416.5 | 324.8 | 85.7 | 0.81
CCC(=O)O[C@H](CC(=O)[O-])C[N+](C)(C)C [Propionyl L-carnitine, propionyl L-carnitine] | 80.9 | 49005.5 | 475.5 | 411 | 328.6 | 86.2 | 0.81
CCC(C)(C)C(=O)O[C@H]1C[C@@H](C)C=C2C=C[C@H](C)[C@H](CC[C@@H]3C[C@@H](O)CC(=O)O3)[C@H]21 [Simvastatin] | 74.5 | 50973.3 | 465.0 | 418.1 | 328.3 | 83.6 | 0.76
